Assay results: US20050153872A1, “Methods and compositions for the treatment of infection” (priority 2004, published 2005)
Converted amounts (≈) assume the structure as drawn. Like-named read-outs stand apart in the source and are kept apart here.

Key:
[1] = system: Vancomycin-resistant Enterococcus ATCC 700802; conditions: for inhibition of VRE cell growth: 10 ug/ml, ATCC 700802
[2] = system: Staphylococcus aureus MRSA 02-18; assay: microbe, parasite or virus in culture; assay type: cell-based; conditions: Staphylococcus aureus MRSA 02-18; read-out: MIC
[3] = system: Escherichia coli 02-1-65; assay: MIC against challenge strain (Table 3); assay type: cell-based; conditions: 02165, read-out: MIC
[4] = system: Staphylococcus aureus MRSA strain (80); assay: In vitro antibacterial activity (MIC), clinical isolates; assay type: cell-based; conditions: Staphylococcus aureus, MRSA
Description: (§1) The following experiments were performed by Lab. of Pharmacology, National Sichuan antibiotic industril institute, Chengdu, Sichuan.
(§2) The following agents were used to test the in vitro activity of Ph-SA:
(§3) All the bacterial strains used in the experiments were clinical isolates collected from Sichuan and Beijing in 2002 and identified by West China Hospital, Sichuan University and Chongqing University of Medical Sciences with API system. The following strains were used in the experiments detailed below: Staphylococcus aureus 168 strains (MRSA 80 strains and MSSA 88 strains) Staphylococcus epidermidis 46 strains (MRSE 25 strains and MSSE 21 strains), Enterococcus 20 strains, and Acenetobactor 20 strains. Staphylococcus aureus ATCC25923, 29213 and BAA-42 were used as control strains. Bacterial strains were contacted with one of the above described compounds and MIC50, MIC90 and MICScope were determined.

[5] = system: Staphylococcus aureus MSSA strain (88); assay: as above; assay type: cell-based; conditions: Staphylococcus aureus, 88 MSSA clinical isolates
Description: as §1, §2, §3

[6] = system: Staphylococcus epidermidis MSSE strain (21); assay: as above; assay type: cell-based; conditions: Staphylococcus epidermidis, 21 MSSE clinical isolates
Description: as §1, §2, §3

[7] = system: Enterococcus (20); assay: as above; assay type: cell-based; conditions: 20 Enterococcus clinical isolates
Description: as §1, §2, §3

[8] = system: Acenetobactor (20); assay: as above; assay type: cell-based
Description: as §1, §2, §3

[9] = system: Staphylococcus epidermidis MRSE strain (25); assay: as above; assay type: cell-based; conditions: Staphylococcus epidermidis, MRSE
Description: as §1, §2, §3

[10] = system: Staphylococcus aureus MRSA 02-18; assay: In vivo protection of infected mice; set-up: species or system Kungming mice; conditions: Staphylococcus aureus, MRSA
Description: (§4) The following experiments were performed by Pharmacology Lab, National Sichuan antibiotic industril institute, Chengdu, Sichuan.
(§5) The agents described above were diluted with sterilized water to final concentrations of 10 mg/L, 5 mg/Land 2.5 mg/L.
(§6) Staphylococcus aureus ATCC BAA-42(MRSA) and enterococcus faecalis ATCC 700802 were used as control strains.
(§7) 170 mice (Kungming mice: 18˜22 g, 85 males and 85 females) were randomly divided into four groups and injected with a fatal dosage of staphylococci, enterococcus and E. coli intraperitoneally. […] Mice were inspected every 24 hours for 7-14 days. Dead mice were counted as positive results. The results are depicted in Table 3 and FIGS. 4 and 5A-B.

[11] = system: Enterococcus faecalis ATCC 700802; assay: In vivo protection of infected mice; set-up: species or system Kungming mice; conditions: Enterococcus faecalis
Description: as §4, §5, §6, §7

[12] = system: Staphylococcus aureus MRSA BAA-42; assay: In vivo protection of infected mice; set-up: species or system Kungming mice; conditions: Staphylococcus aureus
Description: as §4, §5, §6, §7

[13] = system: Escherichia coli 02-1-65; assay: In vivo protection of infected mice; set-up: species or system Kungming mice; conditions: i.p. infection 3.3 × 10^5 cfu/ml, read-out: ED50
Description: as §4
(§8) The agents described above were diluted with sterilized water to final concentrations of 10 mg/L, 5 mg/Land 2.5 mg/L. […]
as §7

[14] = system: Staphylococcus aureus ATCC 29213; assay: In vivo protection of infected mice; set-up: species or system Kungming mice; conditions: Staphylococcus aureus, i.p. infection 3.6 × 10^5 cfu/ml, read-out: ED50
Description: as §4, §8, §7

[15] = system: Staphylococcus aureus MRSA BAA-42; assay: microbe, parasite or virus in culture; assay type: cell-based; conditions: Staphylococcus aureus MRSA BAA-42; read-out: MIC
[16] = system: ATCC 700802 VRE cells; assay: Ph-EF protection of ATCC 700802 infected mice; assay type: in vivo; conditions: for Death distribution in hours 24 h / Death distribution in hours 48 h / Death distribution in hours 72 h / Death distribution in hours 96 h / Death distribution in hours 120 h / Death distribution in hours 144 h / Death distribution in hours 168 h / Number of Death: 5 animals
Description: To assess in vivo effects of Ph-EF, mice were injected with a fatal dosage of ATCC 700802 VRE cells intraperitoneally. […] Mice were inspected every 24 hours for 7-14 days. Dead mice would be counted as positive results.

[17] = system: Staphylococcus aureus ATCC 29213; assay: MIC against challenge strain (Table 3); assay type: cell-based; conditions: ATCC29213, read-out: MIC
[18] = system: Enterococcus faecalis ATCC 700802; assay: microbe, parasite or virus in culture; assay type: cell-based; conditions: ATCC700802; Enterococcus faecalis ATCC 700802; read-out: MIC
[19] = system: ATCC 700802 VRE cells; assay: Electron micrographs of bactericidal effects of Ph-EF; assay type: cell-based, Enterococcus; conditions: Ph-EF 10 ug/ml 0.5 and 2 hr; Ph-SA 10 ug/ml 2 hr; vancomycin 20 ug/ml 2 hr
Description: Electron Microraphs of Bactericidal Effects of Ph-EF Against ATCC 700802 VRE Cells (1% Phosphotungstic Acid, 15.000×).
Bactericidal effects of ph-EF were tested and monitored by electron microscopy. FIG. 16 depicts electron micrographs of (a) untreated cells; (b) and (c) cells treated with Ph-EF (10 ug/ml) for 0.5 hr; (d) untreated cells for 2 hr; (e) cells treated by Ph-SA (10 ug/ml) for 2 hr; (f) cells treated with vancomycin (20 ug/ml) for 2 hr; (g) and (h) cells treated with Ph-EF (10 ug/ml) for 2 hrs.

[20] = system: vancomycin-sensitive Enterococcus ATCC29212; conditions: 3 ug/ml; ATCC 29212 cells

CN[C@H](CC(C)C)C(=O)N[C@H]1C(=O)N[C@@H](CC(N)=O)C(=O)N[C@H]2C(=O)N[C@H]3C(=O)N[C@H](C(=O)N[C@H](C(=O)O)c4cc(O)cc(O)c4-c4cc3ccc4O)[C@H](O)c3ccc(c(Cl)c3)Oc3cc2cc(c3O[C@@H]2O[C@H](CO)[C@@H](O)[C@H](O)[C@H]2O[C@H]2C[C@](C)(N)[C@H](O)[C@H](C)O2)Oc2ccc(cc2Cl)[C@H]1O [Vancomycin]
inhibition of VRE cell growth [1]: only partially inhibited VRE cell growth | MIC [2]: 0.06 µg/mL (≈ 0.0414 µM) | MIC [3]: 128 µg/mL (≈ 88.3 µM) | MIC50 [4]: 0.25 µg/mL (≈ 0.173 µM) | MIC90 [4]: 1 µg/mL (≈ 0.69 µM) | MIC ([4]; read-out: MIC Scope): 0.004 to 2 µg/mL (≈ 0.00276 to 1.38 µM) | MIC50 ([5]; read-out: MIC50): 0.5 µg/mL (≈ 0.345 µM) | MIC90 ([5]; read-out: MIC90): 1 µg/mL (≈ 0.69 µM) | MIC ([5]; read-out: MIC Scope): 0.03 to 1 µg/mL (≈ 0.0207 to 0.69 µM) | MIC [6]: 0.06 to 0.5 µg/mL (≈ 0.0414 to 0.345 µM) | MIC50 ([6]; read-out: MIC50): 0.5 µg/mL (≈ 0.345 µM) | MIC90 ([6]; read-out: MIC90): 0.5 µg/mL (≈ 0.345 µM) | MIC [7]: 0.5 to 50 µg/mL (≈ 0.345 to 34.5 µM) | MIC50 ([7]; read-out: MIC50): 1 µg/mL (≈ 0.69 µM) | MIC90 ([7]; read-out: MIC90): 2 µg/mL (≈ 1.38 µM) | MIC50 [8]: > 128 µg/mL | MIC90 [8]: > 128 µg/mL | MIC50 [9]: 0.5 µg/mL (≈ 0.345 µM) | MIC90 [9]: 1 µg/mL (≈ 0.69 µM) | MIC ([9]; read-out: MIC Scope): 0.25 to 2 µg/mL (≈ 0.173 to 1.38 µM) | ED50 [10]: 2.39 mg/kg | ED50 ([10]; 1 h): 2.27 mg/kg | ED50 ([11]; ATCC700802): 2.64 mg/kg | ED50 ([11]; ATCC700802, 1 h): 3.17 mg/kg | ED50 [12]: 3.53 mg/kg | ED50 ([12]; 1 h): 3.64 mg/kg | ED50 ([13]; Escherichia coli, 02165, 2nd Time (value in parentheses), i.v. treatment): > 30.8 mg/kg | ED50 ([13]; Escherichia coli, 02165, 1 h, 1st Time, i.v. treatment after one hour): > 30.8 mg/kg | ED50 ([14]; ATCC29213, 2nd Time (value in parentheses), i.v. treatment): 2.09 mg/kg | ED50 ([14]; ATCC29213, 1 h, 1st Time, i.v. treatment after one hour): 2.32 mg/kg | MIC [15]: 0.06 µg/mL (≈ 0.0414 µM) | Death distribution in hours 24 h ([16]; 5 mg/kg intravenously): 3 | Death distribution in hours 48 h ([16]; 5 mg/kg intravenously): 2 | Death distribution in hours 72 h ([16]; 5 mg/kg intravenously): 1 | Death distribution in hours 96 h ([16]; 5 mg/kg intravenously): 0 | Death distribution in hours 120 h ([16]; 5 mg/kg intravenously): 0 | Death distribution in hours 144 h ([16]; 5 mg/kg intravenously): 0 | Death distribution in hours 168 h ([16]; 5 mg/kg intravenously): 0 | Number of Death ([16]; 5 mg/kg intravenously): 3 | Death distribution in hours 24 h ([16]; 10 mg/kg intravenously): 1 | Death distribution in hours 48 h ([16]; 10 mg/kg intravenously): 1 | Death distribution in hours 72 h ([16]; 10 mg/kg intravenously): 0 | Death distribution in hours 96 h ([16]; 10 mg/kg intravenously): 0 | Death distribution in hours 120 h ([16]; 10 mg/kg intravenously): 0 | Death distribution in hours 144 h ([16]; 10 mg/kg intravenously): 0 | Death distribution in hours 168 h ([16]; 10 mg/kg intravenously): 0 | Number of Death ([16]; 10 mg/kg intravenously): 1 | MIC [17]: 0.5 µg/mL (≈ 0.345 µM) | MIC [18]: 16 µg/mL (≈ 11 µM) | morphological alteration in VRE cells (electron micrographs) [19]: no morphological alteration

B1: Ph-EF: Colicin Ia linked to the N-terminus of the E. facaelis pheromone cCF10 (protein)
chain: SDPVARGITNPGAESLGYDSDGHEIMAVASPIYVASNPPRVASPVFHGTPPAWSSFGNKTIWGGNEWVASPDSPTRSDIEKRDKEITAYKNTLSAQQKENENKRTEAGKRLSAAIAAREKDENTLKTLRAGNADAADITRQEFRLLQAELREYGFRTEIAGYDALRLHTESRMLFADADSLRISPREARSLIEQAEKRQKDAQNADKKAADMLAEYERRKGILDTRLSELEKNGGAALAVLDAQQARLLGQQTRNDRAISEARNKLSSVTESLNTARNALTRAEQQLTQQKNTPDGKTIVSPEKFPGRSSTNHSIVVSGDPRFAGTIKITTSAVIDNRANLNYLLSHSGLDYKRNILNDRNPVVTEDVEGDKKIYNAEVALAEWDKLRQRLLDARNKITSAESAVASNSARNNLSARTNEQKHANDALNALLKEKENIRNQLSGINQKIAEEKRKQDELKATKDAINFTTEFLKSVSEKYGAKAEQLAREMAGQAKGKKIRNVEEALKTYEKYRADINKKINAKDRAAIAAALESVKLSDISSNLNRFSRGLGYAGKFTSLADWITEFGKAVARGTENWRPLFVKTETIIAGNAATALVALALVFSILTGSALGIIGYGLLMAVTGALIDESLVEKANKFWGILVTLVFV
modifications: Colicin Ia linked to E. facaelis pheromone cCF10
inhibition of VRE cell growth [1]: effectively inhibited VRE cell growth | bactericidal effect relative to vancomycin on a molar basis ([1]; Ph-EF 70,000 daltons vs vancomycin 1456 daltons): almost one hundred times greater | Death distribution in hours 24 h ([16]; 5 mg/kg intravenously): 0 | Death distribution in hours 48 h ([16]; 5 mg/kg intravenously): 1 | Death distribution in hours 72 h ([16]; 5 mg/kg intravenously): 0 | Death distribution in hours 96 h ([16]; 5 mg/kg intravenously): 0 | Death distribution in hours 120 h ([16]; 5 mg/kg intravenously): 0 | Death distribution in hours 144 h ([16]; 5 mg/kg intravenously): 0 | Death distribution in hours 168 h ([16]; 5 mg/kg intravenously): 0 | Number of Death ([16]; 5 mg/kg intravenously): 1 | Death distribution in hours 24 h ([16]; 10 mg/kg intravenously): 0 | Death distribution in hours 48 h ([16]; 10 mg/kg intravenously): 0 | Death distribution in hours 72 h ([16]; 10 mg/kg intravenously): 0 | Death distribution in hours 96 h ([16]; 10 mg/kg intravenously): 0 | Death distribution in hours 120 h ([16]; 10 mg/kg intravenously): 0 | Death distribution in hours 144 h ([16]; 10 mg/kg intravenously): 0 | Death distribution in hours 168 h ([16]; 10 mg/kg intravenously): 0 | Number of Death ([16]; 10 mg/kg intravenously): 0 | protection against infection in mice ([16]; ATCC 700802 VRE i.p., agent i.v.): effectively prevent Enterococcus infection in mice | inhibition of cell growth [20]: inhibited cell growth | morphological alteration in VRE cells (electron micrographs) [19]: substantial morphological alteration
